Laboratory results: PubChem BioAssay (NCI)
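Cells were grown in 96-well plates and exposed to each compound for 48 hours at five concentrations; endpoints were interpolated linearly between bracketing concentrations, or set to the highest concentration if not reached. The concentration for 50% growth inhibition is given as GI50. Definition used: TGI = concentration required for complete inhibition of growth.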

Key:
Test in all cases: NCI-60 cell line screen, 48 h
786-0 renal = tested on: 786-0 renal
A498 renal = tested on: A498 renal
A549 NSCLC = tested on: A549 NSCLC
ACHN renal = tested on: ACHN renal
BT-549 breast = tested on: BT-549 breast
CAKI-1 renal = tested on: CAKI-1 renal
CCRF-CEM leukemia = tested on: CCRF-CEM leukemia
COLO 205 colon = tested on: COLO 205 colon
DU-145 prostate = tested on: DU-145 prostate
EKVX NSCLC = tested on: EKVX NSCLC
HCC-2998 colon = tested on: HCC-2998 colon
HCT-15 colon = tested on: HCT-15 colon
HL-60(TB) leukemia = tested on: HL-60(TB) leukemia
HOP-62 NSCLC = tested on: HOP-62 NSCLC
HOP-92 NSCLC = tested on: HOP-92 NSCLC
HS 578T breast = tested on: HS 578T breast
HT29 colon = tested on: HT29 colon
IGROV1 ovarian = tested on: IGROV1 ovarian
K-562 leukemia = tested on: K-562 leukemia
KM12 colon = tested on: KM12 colon
M14 melanoma = tested on: M14 melanoma
MALME-3M melanoma = tested on: MALME-3M melanoma
MCF7 breast = tested on: MCF7 breast
MDA-MB-231 breast = tested on: MDA-MB-231 breast
MDA-MB-435 = tested on: MDA-MB-435
MOLT-4 leukemia = tested on: MOLT-4 leukemia
NCI-H226 lung = tested on: NCI-H226 lung
NCI-H460 lung = tested on: NCI-H460 lung
NCI-H522 lung = tested on: NCI-H522 lung
NCI/ADR-RES ovarian = tested on: NCI/ADR-RES ovarian
OVCAR-3 ovarian = tested on: OVCAR-3 ovarian
OVCAR-4 ovarian = tested on: OVCAR-4 ovarian
OVCAR-5 ovarian = tested on: OVCAR-5 ovarian
OVCAR-8 ovarian = tested on: OVCAR-8 ovarian
PC-3 prostate = tested on: PC-3 prostate
RPMI-8226 leukemia = tested on: RPMI-8226 leukemia
RXF 393 renal = tested on: RXF 393 renal
SF-268 CNS = tested on: SF-268 CNS
SF-295 CNS = tested on: SF-295 CNS
SF-539 CNS = tested on: SF-539 CNS
SK-MEL-2 melanoma = tested on: SK-MEL-2 melanoma
SK-MEL-28 melanoma = tested on: SK-MEL-28 melanoma
SK-MEL-5 melanoma = tested on: SK-MEL-5 melanoma
SK-OV-3 ovarian = tested on: SK-OV-3 ovarian
SN12C renal = tested on: SN12C renal
SNB-19 CNS = tested on: SNB-19 CNS
SNB-75 CNS = tested on: SNB-75 CNS
SR leukemia = tested on: SR leukemia
SW-620 colon = tested on: SW-620 colon
T-47D breast = tested on: T-47D breast
TK-10 renal = tested on: TK-10 renal
U251 CNS = tested on: U251 CNS
UACC-257 melanoma = tested on: UACC-257 melanoma
UACC-62 melanoma = tested on: UACC-62 melanoma
UO-31 renal = tested on: UO-31 renal

CCNC(=O)Oc1ccc(/C(=C(/C)c2ccccc2)c2ccc(OCCN3CCCCCC3)cc2)cc1
GI50 (786-0 renal): 1.71 µM
TGI (786-0 renal): 3.46 µM
GI50 (A498 renal): 10.4 µM
TGI (A498 renal): 24.7 µM
GI50 (A549 NSCLC): 3.26 µM
TGI (A549 NSCLC): 13.1 µM
GI50 (ACHN renal): 3.37 µM
TGI (ACHN renal): 10.6 µM
GI50 (BT-549 breast): 1.71 µM
TGI (BT-549 breast): 3.38 µM
GI50 (CAKI-1 renal): 1.94 µM
TGI (CAKI-1 renal): 4.28 µM
GI50 (CCRF-CEM leukemia): 2.92 µM
TGI (CCRF-CEM leukemia): 28.7 µM
GI50 (COLO 205 colon): 1.56 µM
TGI (COLO 205 colon): 2.98 µM
GI50 (DU-145 prostate): 4.92 µM
TGI (DU-145 prostate): 20.3 µM
GI50 (EKVX NSCLC): 3.24 µM
TGI (EKVX NSCLC): 12.2 µM
GI50 (HCC-2998 colon): 2 µM
TGI (HCC-2998 colon): 3.89 µM
GI50 (HCT-15 colon): 1.53 µM
TGI (HCT-15 colon): 3.33 µM
GI50 (HL-60(TB) leukemia): 1.8 µM
TGI (HL-60(TB) leukemia): 6.15 µM
GI50 (HOP-62 NSCLC): 2.05 µM
TGI (HOP-62 NSCLC): 4.82 µM
GI50 (HOP-92 NSCLC): 1.23 µM
TGI (HOP-92 NSCLC): 4.62 µM
GI50 (HS 578T breast): 1.91 µM
TGI (HS 578T breast): 4.67 µM
GI50 (HT29 colon): 1.27 µM
TGI (HT29 colon): 3.27 µM
GI50 (IGROV1 ovarian): 3.64 µM
TGI (IGROV1 ovarian): 14.8 µM
GI50 (K-562 leukemia): 1.82 µM
TGI (K-562 leukemia): > 100 µM
GI50 (KM12 colon): 3 µM
TGI (KM12 colon): 11.1 µM
GI50 (M14 melanoma): 1.8 µM
TGI (M14 melanoma): 3.62 µM
GI50 (MALME-3M melanoma): 1.8 µM
TGI (MALME-3M melanoma): 3.47 µM
TGI (MCF7 breast): 2.6 µM
GI50 (MDA-MB-231 breast): 2.25 µM
TGI (MDA-MB-231 breast): 4.84 µM
GI50 (MDA-MB-435): 1.7 µM
TGI (MDA-MB-435): 3.29 µM
GI50 (MOLT-4 leukemia): 2.4 µM
TGI (MOLT-4 leukemia): 12.3 µM
GI50 (NCI-H226 lung): 2.97 µM
TGI (NCI-H226 lung): 10.8 µM
GI50 (NCI-H460 lung): 1.99 µM
TGI (NCI-H460 lung): 4.14 µM
GI50 (NCI-H522 lung): 1.8 µM
TGI (NCI-H522 lung): 3.75 µM
GI50 (NCI/ADR-RES ovarian): 2.22 µM
TGI (NCI/ADR-RES ovarian): 6.4 µM
GI50 (OVCAR-3 ovarian): 2.87 µM
TGI (OVCAR-3 ovarian): 8.2 µM
GI50 (OVCAR-4 ovarian): 3.05 µM
TGI (OVCAR-4 ovarian): 11.8 µM
GI50 (OVCAR-5 ovarian): 4.35 µM
TGI (OVCAR-5 ovarian): 17.8 µM
GI50 (OVCAR-8 ovarian): 3.07 µM
TGI (OVCAR-8 ovarian): 10.7 µM
GI50 (PC-3 prostate): 1.74 µM
TGI (PC-3 prostate): 4.19 µM
GI50 (RPMI-8226 leukemia): 1.95 µM
TGI (RPMI-8226 leukemia): 4.65 µM
GI50 (RXF 393 renal): 1.65 µM
TGI (RXF 393 renal): 3.27 µM
GI50 (SF-268 CNS): 4 µM
TGI (SF-268 CNS): 18.6 µM
GI50 (SF-295 CNS): 1.98 µM
TGI (SF-295 CNS): 3.94 µM
GI50 (SF-539 CNS): 1.74 µM
TGI (SF-539 CNS): 3.21 µM
GI50 (SK-MEL-2 melanoma): 2.48 µM
TGI (SK-MEL-2 melanoma): 6.76 µM
GI50 (SK-MEL-28 melanoma): 1.8 µM
TGI (SK-MEL-28 melanoma): 3.62 µM
GI50 (SK-MEL-5 melanoma): 1.74 µM
TGI (SK-MEL-5 melanoma): 3.16 µM
GI50 (SK-OV-3 ovarian): 2.74 µM
TGI (SK-OV-3 ovarian): 8.06 µM
GI50 (SN12C renal): 2.56 µM
TGI (SN12C renal): 8.36 µM
GI50 (SNB-19 CNS): 3.82 µM
TGI (SNB-19 CNS): 13.4 µM
GI50 (SNB-75 CNS): 1.85 µM
TGI (SNB-75 CNS): 4.36 µM
GI50 (SR leukemia): 2.04 µM
TGI (SR leukemia): 6.59 µM
GI50 (SW-620 colon): 2.11 µM
TGI (SW-620 colon): 5.15 µM
GI50 (T-47D breast): 1.15 µM
TGI (T-47D breast): 6.04 µM
GI50 (TK-10 renal): 5.83 µM
TGI (TK-10 renal): 19.9 µM
GI50 (U251 CNS): 1.58 µM
TGI (U251 CNS): 3.2 µM
GI50 (UACC-257 melanoma): 1.88 µM
TGI (UACC-257 melanoma): 3.87 µM
GI50 (UACC-62 melanoma): 1.91 µM
TGI (UACC-62 melanoma): 3.87 µM
GI50 (UO-31 renal): 1.52 µM
TGI (UO-31 renal): 4.43 µM

NC(N)=Nc1ccc(Nc2cccc(Nc3ccc(Cl)c(C(F)(F)F)c3)c2)cn1
GI50 (A498 renal): 1.69 µM
TGI (A498 renal): 4.72 µM
GI50 (ACHN renal): 3.58 µM
TGI (ACHN renal): 17.5 µM
GI50 (HL-60(TB) leukemia): 2.31 µM
TGI (HL-60(TB) leukemia): 5.74 µM
GI50 (HS 578T breast): 2.04 µM
TGI (HS 578T breast): 4.94 µM
GI50 (K-562 leukemia): 2.54 µM
TGI (K-562 leukemia): > 100 µM
GI50 (MALME-3M melanoma): 2.01 µM
TGI (MALME-3M melanoma): 5.36 µM
GI50 (NCI/ADR-RES ovarian): 21.6 µM
TGI (NCI/ADR-RES ovarian): 93.4 µM
GI50 (SK-OV-3 ovarian): 2.81 µM
TGI (SK-OV-3 ovarian): 6.91 µM
GI50 (T-47D breast): 1.85 µM
TGI (T-47D breast): 4.87 µM
GI50 (TK-10 renal): 2.77 µM
TGI (TK-10 renal): 7.58 µM
GI50 (UACC-257 melanoma): 2.39 µM
TGI (UACC-257 melanoma): 6.53 µM
GI50 (UO-31 renal): 4.33 µM
TGI (UO-31 renal): 38.3 µM
